Data as given in ChEMBL document CHEMBL3046451, “Design, synthesis, characterization, and in vitro antimicrobial action of novel trisubstituted s-triazines” (2012).
Converted amounts (≈) assume the structure as drawn.

Tests used:
Aspergillus niger [1] = experiment: Antifungal activity against Aspergillus niger MTCC 282 after 48 hr by agar streak dilution method; format: functional; details: MTCC 282, 48 h
Aspergillus niger [2] = experiment: Antifungal activity against Aspergillus niger MTCC 282 at 50 ug/disk after 24 hr by paper disk diffusion method; format: functional; details: MTCC 282, 24 h, read-out: IZ
Candida albicans [3] = experiment: Antifungal activity against Candida albicans MTCC 183 at 50 ug/disk after 24 hr by paper disk diffusion method; format: functional; details: MTCC 183, 24 h, read-out: IZ
Candida albicans [4] = experiment: Antifungal activity against Candida albicans MTCC 183 after 48 hr by agar streak dilution method; format: functional; details: MTCC 183, 48 h
Bacillus cereus [5] = experiment: Antibacterial activity against Bacillus cereus MTCC 619 after 24 hr by paper disk diffusion method; format: functional
Staphylococcus aureus [6] = experiment: Antibacterial activity against Staphylococcus aureus MTCC 96 after 24 hr by paper disk diffusion method; format: functional
Salmonella typhi [7] = experiment: Antibacterial activity against Salmonella enterica subsp. enterica serovar Typhi MTCC 733 after 24 hr by agar streak dilution method; format: functional; details: MTCC 733, 24 h
Escherichia coli [8] = experiment: Antibacterial activity against Escherichia coli MTCC 739 after 24 hr by agar streak dilution method; format: functional; details: MTCC 739, 24 h
Shigella flexneri [9] = experiment: Antibacterial activity against Shigella flexneri MTCC 1457 after 24 hr by paper disk diffusion method; format: functional
Klebsiella pneumoniae [10] = experiment: Antibacterial activity against Klebsiella pneumoniae MTCC 109 after 24 hr by agar streak dilution method; format: functional; details: MTCC 109, 24 h
Candida albicans [11] = experiment: Antifungal activity against Candida albicans MTCC 183 after 24 hr by paper disk diffusion method; format: functional
Pseudomonas aeruginosa [12] = experiment: Antibacterial activity against Pseudomonas aeruginosa MTCC 741 after 24 hr by paper disk diffusion method; format: functional
Salmonella typhi [13] = experiment: Antibacterial activity against Salmonella enterica subsp. enterica serovar Typhi MTCC 733 after 24 hr by paper disk diffusion method; format: functional
Aspergillus niger [14] = experiment: Antifungal activity against Aspergillus niger MTCC 282 after 24 hr by paper disk diffusion method; format: functional
Proteus vulgaris [15] = experiment: Antibacterial activity against Proteus vulgaris MTCC 1771 after 24 hr by paper disk diffusion method; format: functional
Bacillus cereus [16] = experiment: Antibacterial activity against Bacillus cereus MTCC 619 after 24 hr by agar streak dilution method; format: functional; details: MTCC 619, 24 h
Staphylococcus aureus [17] = experiment: Antibacterial activity against Staphylococcus aureus MTCC 96 after 24 hr by agar streak dilution method; format: functional; details: MTCC 96, 24 h
Shigella flexneri [18] = experiment: Antibacterial activity against Shigella flexneri MTCC 1457 after 24 hr by agar streak dilution method; format: functional; details: MTCC 1457, 24 h
Klebsiella pneumoniae [19] = experiment: Antibacterial activity against Klebsiella pneumoniae MTCC 109 after 24 hr by paper disk diffusion method; format: functional
Escherichia coli [20] = experiment: Antibacterial activity against Escherichia coli MTCC 739 after 24 hr by paper disk diffusion method; format: functional
Proteus vulgaris [21] = experiment: Antibacterial activity against Proteus vulgaris MTCC 1771 after 24 hr by agar streak dilution method; format: functional; details: MTCC 1771, 24 h
Pseudomonas aeruginosa [22] = experiment: Antibacterial activity against Pseudomonas aeruginosa MTCC 741 after 24 hr by agar streak dilution method; format: functional; details: MTCC 741, 24 h
Proteus vulgaris [23] = experiment: Antibacterial activity against Proteus vulgaris MTCC 1771 at 50 ug/disk after 24 hr by paper disk diffusion method; format: functional; details: MTCC 1771, 24 h, read-out: IZ
Salmonella typhi [24] = experiment: Antibacterial activity against Salmonella enterica subsp. enterica serovar Typhi MTCC 733 at 50 ug/disk after 24 hr by paper disk diffusion method; format: functional; details: MTCC 733, 24 h, read-out: IZ
Shigella flexneri [25] = experiment: Antibacterial activity against Shigella flexneri MTCC 1457 at 50 ug/disc after 24 hr by paper disk diffusion method; format: functional; details: MTCC 1457, 24 h, read-out: IZ
Escherichia coli [26] = experiment: microbe, parasite or virus in culture; details: MTCC 739, 24 h, read-out: IZ
Description: Antibacterial activity against Escherichia coli MTCC 739 at 50 ug/disk after 24 hr by paper disk diffusion method

Klebsiella pneumoniae [27] = experiment: microbe, parasite or virus in culture; details: MTCC 109, 24 h, read-out: IZ
Description: Antibacterial activity against Klebsiella pneumoniae MTCC 109 at 50 ug/disk after 24 hr by paper disk diffusion method

Staphylococcus aureus [28] = experiment: Antibacterial activity against Staphylococcus aureus MTCC 96 at 50 ug/disc after 24 hr by paper disk diffusion method; details: MTCC 96, 24 h, read-out: IZ
Bacillus cereus [29] = experiment: Antibacterial activity against Bacillus cereus MTCC 619 at 50 ug/disk after 24 hr by paper disk diffusion method; format: functional; details: MTCC 619, 24 h, read-out: IZ
Pseudomonas aeruginosa [30] = experiment: microbe, parasite or virus in culture; details: MTCC 741, 24 h, read-out: IZ
Description: Antibacterial activity against Pseudomonas aeruginosa MTCC 741 at 50 ug/disk after 24 hr by paper disk diffusion method

CC(=O)N1CCN(c2ccc(OCC3COC(Cn4ccnc4)(c4ccc(Cl)cc4Cl)O3)cc2)CC1 (centres undefined) [KETOCONAZOLE]
MIC (Aspergillus niger [1]): ≤ 3 µg/mL | zone of inhibition at 50 µg/disc (Aspergillus niger [2]): 16 mm | zone of inhibition at 50 µg/disc (Candida albicans [3]): 17 mm | MIC (Candida albicans [4]): 1 µg/mL (≈ 1.88 µM)

Cn1c(=O)cc(Oc2nc(Nc3ccc(C#N)cc3)nc(NC3CCCCC3)n2)c2ccccc21
inhibition zone (IZ) (Bacillus cereus [5]): 10 mm | inhibition zone (IZ) (Staphylococcus aureus [6]): 14 mm | MIC (Salmonella typhi [7]): 50 µg/mL (≈ 107 µM) | MIC (Escherichia coli [8]): 50 µg/mL (≈ 107 µM) | inhibition zone (IZ) (Shigella flexneri [9]): 9 mm | MIC (Klebsiella pneumoniae [10]): 12.5 µg/mL (≈ 26.7 µM) | MIC (Aspergillus niger [1]): 50 µg/mL (≈ 107 µM) | inhibition zone (IZ) (Candida albicans [11]): 10 mm | inhibition zone (IZ) (Pseudomonas aeruginosa [12]): <5 mm | inhibition zone (IZ) (Salmonella typhi [13]): <5 mm | inhibition zone (IZ) (Aspergillus niger [14]): 9 mm | inhibition zone (IZ) (Proteus vulgaris [15]): 7 mm | MIC (Bacillus cereus [16]): 50 µg/mL (≈ 107 µM) | MIC (Staphylococcus aureus [17]): 6.25 µg/mL (≈ 13.4 µM) | MIC (Shigella flexneri [18]): 50 µg/mL (≈ 107 µM) | inhibition zone (IZ) (Klebsiella pneumoniae [19]): 13 mm | inhibition zone (IZ) (Escherichia coli [20]): 8 mm | MIC (Candida albicans [4]): 50 µg/mL (≈ 107 µM) | MIC (Proteus vulgaris [21]): 50 µg/mL (≈ 107 µM) | MIC (Pseudomonas aeruginosa [22]): 50 µg/mL (≈ 107 µM)

COc1ccc2[nH]cc(CCNc3nc(Nc4ccc(C#N)cc4)nc(Oc4cc(=O)n(C)c5ccccc45)n3)c2c1
inhibition zone (IZ) (Bacillus cereus [5]): 13 mm | inhibition zone (IZ) (Staphylococcus aureus [6]): 15 mm | MIC (Salmonella typhi [7]): 50 µg/mL (≈ 89.5 µM) | MIC (Escherichia coli [8]): 50 µg/mL (≈ 89.5 µM) | inhibition zone (IZ) (Shigella flexneri [9]): 12 mm | MIC (Klebsiella pneumoniae [10]): 50 µg/mL (≈ 89.5 µM) | MIC (Aspergillus niger [1]): 25 µg/mL (≈ 44.8 µM) | inhibition zone (IZ) (Candida albicans [11]): 15 mm | inhibition zone (IZ) (Pseudomonas aeruginosa [12]): 9 mm | inhibition zone (IZ) (Salmonella typhi [13]): <5 mm | inhibition zone (IZ) (Aspergillus niger [14]): 12 mm | inhibition zone (IZ) (Proteus vulgaris [15]): 6 mm | MIC (Bacillus cereus [16]): 25 µg/mL (≈ 44.8 µM) | MIC (Staphylococcus aureus [17]): 6.25 µg/mL (≈ 11.2 µM) | MIC (Shigella flexneri [18]): 50 µg/mL (≈ 89.5 µM) | inhibition zone (IZ) (Klebsiella pneumoniae [19]): 10 mm | inhibition zone (IZ) (Escherichia coli [20]): 9 mm | MIC (Candida albicans [4]): 25 µg/mL (≈ 44.8 µM) | MIC (Proteus vulgaris [21]): 50 µg/mL (≈ 89.5 µM) | MIC (Pseudomonas aeruginosa [22]): 50 µg/mL (≈ 89.5 µM)

Cn1c(=O)cc(Oc2nc(NCCc3cccs3)nc(Nc3ccc(C#N)cc3)n2)c2ccccc21
inhibition zone (IZ) (Bacillus cereus [5]): 13 mm | inhibition zone (IZ) (Staphylococcus aureus [6]): 15 mm | MIC (Salmonella typhi [7]): 50 µg/mL (≈ 101 µM) | MIC (Escherichia coli [8]): 50 µg/mL (≈ 101 µM) | inhibition zone (IZ) (Shigella flexneri [9]): 14 mm | MIC (Klebsiella pneumoniae [10]): 50 µg/mL (≈ 101 µM) | MIC (Aspergillus niger [1]): 25 µg/mL (≈ 50.4 µM) | inhibition zone (IZ) (Candida albicans [11]): 15 mm | inhibition zone (IZ) (Pseudomonas aeruginosa [12]): 10 mm | inhibition zone (IZ) (Salmonella typhi [13]): 12 mm | inhibition zone (IZ) (Aspergillus niger [14]): 13 mm | inhibition zone (IZ) (Proteus vulgaris [15]): 7 mm | MIC (Bacillus cereus [16]): 25 µg/mL (≈ 50.4 µM) | MIC (Staphylococcus aureus [17]): 6.25 µg/mL (≈ 12.6 µM) | MIC (Shigella flexneri [18]): 25 µg/mL (≈ 50.4 µM) | inhibition zone (IZ) (Klebsiella pneumoniae [19]): 10 mm | inhibition zone (IZ) (Escherichia coli [20]): 10 mm | MIC (Candida albicans [4]): 25 µg/mL (≈ 50.4 µM) | MIC (Proteus vulgaris [21]): 50 µg/mL (≈ 101 µM) | MIC (Pseudomonas aeruginosa [22]): 50 µg/mL (≈ 101 µM)

Cn1c(=O)cc(Oc2nc(Nc3ccc(C#N)cc3)nc(NC3CC3)n2)c2ccccc21
inhibition zone (IZ) (Bacillus cereus [5]): 11 mm | inhibition zone (IZ) (Staphylococcus aureus [6]): <5 mm | MIC (Salmonella typhi [7]): 50 µg/mL (≈ 118 µM) | MIC (Escherichia coli [8]): 50 µg/mL (≈ 118 µM) | inhibition zone (IZ) (Shigella flexneri [9]): <5 mm | MIC (Klebsiella pneumoniae [10]): 25 µg/mL (≈ 58.8 µM) | MIC (Aspergillus niger [1]): 50 µg/mL (≈ 118 µM) | inhibition zone (IZ) (Candida albicans [11]): 8 mm | inhibition zone (IZ) (Pseudomonas aeruginosa [12]): 6 mm | inhibition zone (IZ) (Salmonella typhi [13]): <5 mm | inhibition zone (IZ) (Aspergillus niger [14]): 10 mm | inhibition zone (IZ) (Proteus vulgaris [15]): 8 mm | MIC (Bacillus cereus [16]): 25 µg/mL (≈ 58.8 µM) | MIC (Staphylococcus aureus [17]): 50 µg/mL (≈ 118 µM) | MIC (Shigella flexneri [18]): 50 µg/mL (≈ 118 µM) | inhibition zone (IZ) (Klebsiella pneumoniae [19]): 11 mm | inhibition zone (IZ) (Escherichia coli [20]): 7 mm | MIC (Candida albicans [4]): 50 µg/mL (≈ 118 µM) | MIC (Proteus vulgaris [21]): 50 µg/mL (≈ 118 µM) | MIC (Pseudomonas aeruginosa [22]): 50 µg/mL (≈ 118 µM)

O=C(O)c1cn(C2CC2)c2cc(N3CCNCC3)c(F)cc2c1=O [CIPROFLOXACIN]
zone of inhibition at 50 µg/disc (Proteus vulgaris [23]): 17 mm | MIC (Salmonella typhi [7]): 1 µg/mL (≈ 3.02 µM) | MIC (Klebsiella pneumoniae [10]): 1 µg/mL (≈ 3.02 µM) | zone of inhibition at 50 µg/disc (Salmonella typhi [24]): 16 mm | zone of inhibition at 50 µg/disc (Shigella flexneri [25]): 17 mm | zone of inhibition at 50 µg/disc (Escherichia coli [26]): 18 mm | zone of inhibition at 50 µg/disc (Klebsiella pneumoniae [27]): 16 mm | zone of inhibition at 50 µg/disc (Staphylococcus aureus [28]): 17 mm | zone of inhibition at 50 µg/disc (Bacillus cereus [29]): 16 mm | MIC (Bacillus cereus [16]): 1 µg/mL (≈ 3.02 µM) | zone of inhibition at 50 µg/disc (Pseudomonas aeruginosa [30]): 15 mm | MIC (Staphylococcus aureus [17]): 1 µg/mL (≈ 3.02 µM) | MIC (Shigella flexneri [18]): ≤ 3 µg/mL | MIC (Proteus vulgaris [21]): 1 µg/mL (≈ 3.02 µM) | MIC (Pseudomonas aeruginosa [22]): 1 µg/mL (≈ 3.02 µM)
